# Source: article PMC4569415, “Pro-Oxidant Activity of Amine-Pyridine-Based Iron Complexes Efficiently Kills Cancer and Cancer Stem-Like Cells” (PLoS ONE, 2015)
# What was measured:
# Format in all cases: cell-based, human
# [1] = system: CS-like HMLER-shEcad cells; experiment: MTT cytotoxicity assay in cancer stem-like cells; details: Homo sapiens, 48 h
# Method: The cytotoxic activity of the compounds was determined by MTT reduction assay as described. Compounds were diluted in Milli-Q water to obtain 1 mmol/L stock solutions. Appropriate aliquots of these solutions were diluted in the corresponding cell culture medium to obtain the final working concentrations. Aliquots of 5000 1BR3G cells, 6000 MCF-7, 6000 PC-3 cells, 10 000 CAPAN-1 cells, 4000 MCF 10A cells, 4000 HMLE cells or 4000 CCD-18Co cells were seeded in 96-well plates, 24 h prior to the treatments. Hematological cell lines were seeded at 400 000 cells/mL. Cells were treated with the corresponding compound at concentrations ranging from 0 to 100 μmol/L for 48 h. Three replicates for each compound were used. The IC50 was established for each compound by standard non-linear regression and curve fitting using GraphPad Prism (Graph Pad software Inc., La Jolla, CA, USA).
# Fig 2 Cell viability assay. (A) Cytotoxic activity of compounds 1, 2, and 5 against cancer cells. The indicated cell lines were treated for 48 h with ligands (10 μmol/L) and cell viability was measured with the MTT assay. Data represents the percentage of viable cells relative to untreated cells (control). (B) Cytotoxicity of doxorubicin and compounds 1, 2 and 5 against CS-like cells. CS-like HMLER-shEcad cells and non-CS-like HMLER isogenic parental cells were treated for 48 h with graded concentrations of doxorubicin, 1, 2 and 5. Cell viability was measured with the MTT assay. For each treatment, the percentage of viable cells relative to untreated cells is indicated. Data represents the mean±SD of 3 independent experiments performed in triplicate.
# [2] = system: MCF-7 cells; experiment: ROS measurement with H2DCFDA; details: MCF-7, 10 μmol/L, 24 h
# Method: (§1) Cellular ROS content was determined using the 2′,7′-dichlorodihydrofluorescein diacetate probe (H2DCFDA). Cells were seeded in 24-well plates (50 000 cells/well) in phenol red-free DMEM 24 h prior to treatments. Cells were treated with different concentrations of compound 1, 2 and 5 (2.5, 5 or 10 μmol/L) or vehicle alone as a control, for 5 or 24 hours at 37°C. In some experiments, cells were co-treated with the compounds plus 5 mmol/L NAC. After treatments, cells were washed with PBS and incubated with 1 μmol/L H2DCF-DA in PBS for 30 minutes in the dark. After washing, cells were collected with trypsin and analyzed by flow cytometry using a FACS-Calibur flow cytometer (Becton-Dickinson®, Immunofluorometry Systems, Mountain View, CA, USA). The geometric mean fluorescence intensity of 10 000 cells was established using CellQuestTM software (Becton Dickinson). The fluorescence fold-increase versus untreated cells was determined for each treatment.
# [3] = system: JURKAT cells; experiment: ROS measurement with H2DCFDA; details: 10 μmol/L, 24 h
# Method: as §1
Compound,IC50 [1] [µM],increase in ROS levels [2] [fold],ROS levels versus control cells [3] [folds]
c1ccc(CN2CCC[C@H]2[C@@H]2CCCN2Cc2ccccn2)nc1 [Compound 1],5.3 ± 0.7,–,–
CN(C)c1ccnc(CN2CCC[C@H]2[C@@H]2CCCN2Cc2cc(N(C)C)ccn2)c1 [Compound 2],6.8 ± 0.1,7,1.94
CN1CCN(Cc2ccccn2)CCN(Cc2ccccn2)CC1 [Compound 5],8.6 ± 0.5,–,–
